In paper PMC4457528, “Identification of Novel Small Molecule Inhibitors of Oncogenic RET Kinase” (PLoS ONE, 2015):

Legend:
Assay in all cases: KinomeScan kinase panel, single concentration 10 µM
Assay type in all cases: binding
KinomeScan kinase panel [1] = target: T1, KinomeScan kinase panel (Homo sapiens, UniProt P33981); details: kinase TTK; 10 µM; read-out: score (%)
T1 construct: purchased DiscoveRx (KinomeScan)
T1 sequence (P33981 1-857): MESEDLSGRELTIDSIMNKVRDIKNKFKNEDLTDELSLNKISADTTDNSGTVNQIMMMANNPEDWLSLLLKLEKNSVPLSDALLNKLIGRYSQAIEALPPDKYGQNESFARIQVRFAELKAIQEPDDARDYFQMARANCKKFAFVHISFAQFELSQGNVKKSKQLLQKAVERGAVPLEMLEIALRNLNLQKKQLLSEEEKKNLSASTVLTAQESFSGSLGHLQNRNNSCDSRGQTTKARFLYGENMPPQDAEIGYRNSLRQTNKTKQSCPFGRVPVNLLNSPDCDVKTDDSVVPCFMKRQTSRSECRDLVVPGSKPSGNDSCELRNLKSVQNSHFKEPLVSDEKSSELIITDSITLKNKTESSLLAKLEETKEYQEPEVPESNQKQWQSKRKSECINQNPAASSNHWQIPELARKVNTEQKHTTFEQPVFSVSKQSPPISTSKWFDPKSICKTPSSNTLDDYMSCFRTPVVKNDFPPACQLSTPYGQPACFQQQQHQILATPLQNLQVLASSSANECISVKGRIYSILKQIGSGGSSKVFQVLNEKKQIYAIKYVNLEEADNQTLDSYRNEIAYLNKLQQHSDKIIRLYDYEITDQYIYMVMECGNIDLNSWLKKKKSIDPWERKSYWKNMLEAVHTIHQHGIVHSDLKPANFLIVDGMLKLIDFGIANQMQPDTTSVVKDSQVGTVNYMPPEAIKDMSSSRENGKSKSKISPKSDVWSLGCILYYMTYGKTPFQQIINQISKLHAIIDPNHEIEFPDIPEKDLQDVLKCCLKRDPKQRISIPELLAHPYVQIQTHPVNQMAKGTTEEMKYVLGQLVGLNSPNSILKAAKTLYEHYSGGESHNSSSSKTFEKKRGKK

KinomeScan kinase panel [2] = target: T2, KinomeScan kinase panel (Homo sapiens, UniProt P50613); details: CDK7, 10 µM; read-out: score (%)
T2 construct: purchased DiscoveRx (KinomeScan)
T2 sequence (P50613 whole entry): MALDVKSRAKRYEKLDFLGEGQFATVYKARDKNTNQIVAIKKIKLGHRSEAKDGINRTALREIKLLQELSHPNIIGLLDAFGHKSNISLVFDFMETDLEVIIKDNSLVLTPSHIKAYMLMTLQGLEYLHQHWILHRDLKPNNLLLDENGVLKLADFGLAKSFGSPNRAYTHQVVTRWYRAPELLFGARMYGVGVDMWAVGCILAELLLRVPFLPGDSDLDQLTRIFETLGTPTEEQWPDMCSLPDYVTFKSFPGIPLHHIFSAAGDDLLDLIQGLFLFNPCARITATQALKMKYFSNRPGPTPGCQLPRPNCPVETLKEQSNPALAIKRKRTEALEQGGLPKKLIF

KinomeScan kinase panel [3] = target: T3, KinomeScan kinase panel (Homo sapiens, UniProt O94768); details: DRAK2, 10 µM; read-out: score (%)
T3 construct: purchased DiscoveRx (KinomeScan)
T3 sequence (O94768 1-372): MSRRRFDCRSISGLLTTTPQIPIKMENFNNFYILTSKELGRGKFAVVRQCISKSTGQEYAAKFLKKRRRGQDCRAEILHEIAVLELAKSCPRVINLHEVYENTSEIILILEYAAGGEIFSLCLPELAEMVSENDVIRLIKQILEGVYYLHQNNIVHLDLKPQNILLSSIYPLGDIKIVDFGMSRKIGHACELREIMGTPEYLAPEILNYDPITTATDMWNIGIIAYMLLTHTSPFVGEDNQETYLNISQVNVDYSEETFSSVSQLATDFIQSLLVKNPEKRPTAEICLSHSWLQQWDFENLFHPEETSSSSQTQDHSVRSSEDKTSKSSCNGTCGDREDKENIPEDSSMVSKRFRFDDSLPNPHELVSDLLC

KinomeScan kinase panel [4] = target: T4, KinomeScan kinase panel (Homo sapiens, UniProt P54760); details: EPHB4, 10 µM; read-out: score (%)
T4 construct: purchased DiscoveRx (KinomeScan)
T4 sequence (P54760 16-987): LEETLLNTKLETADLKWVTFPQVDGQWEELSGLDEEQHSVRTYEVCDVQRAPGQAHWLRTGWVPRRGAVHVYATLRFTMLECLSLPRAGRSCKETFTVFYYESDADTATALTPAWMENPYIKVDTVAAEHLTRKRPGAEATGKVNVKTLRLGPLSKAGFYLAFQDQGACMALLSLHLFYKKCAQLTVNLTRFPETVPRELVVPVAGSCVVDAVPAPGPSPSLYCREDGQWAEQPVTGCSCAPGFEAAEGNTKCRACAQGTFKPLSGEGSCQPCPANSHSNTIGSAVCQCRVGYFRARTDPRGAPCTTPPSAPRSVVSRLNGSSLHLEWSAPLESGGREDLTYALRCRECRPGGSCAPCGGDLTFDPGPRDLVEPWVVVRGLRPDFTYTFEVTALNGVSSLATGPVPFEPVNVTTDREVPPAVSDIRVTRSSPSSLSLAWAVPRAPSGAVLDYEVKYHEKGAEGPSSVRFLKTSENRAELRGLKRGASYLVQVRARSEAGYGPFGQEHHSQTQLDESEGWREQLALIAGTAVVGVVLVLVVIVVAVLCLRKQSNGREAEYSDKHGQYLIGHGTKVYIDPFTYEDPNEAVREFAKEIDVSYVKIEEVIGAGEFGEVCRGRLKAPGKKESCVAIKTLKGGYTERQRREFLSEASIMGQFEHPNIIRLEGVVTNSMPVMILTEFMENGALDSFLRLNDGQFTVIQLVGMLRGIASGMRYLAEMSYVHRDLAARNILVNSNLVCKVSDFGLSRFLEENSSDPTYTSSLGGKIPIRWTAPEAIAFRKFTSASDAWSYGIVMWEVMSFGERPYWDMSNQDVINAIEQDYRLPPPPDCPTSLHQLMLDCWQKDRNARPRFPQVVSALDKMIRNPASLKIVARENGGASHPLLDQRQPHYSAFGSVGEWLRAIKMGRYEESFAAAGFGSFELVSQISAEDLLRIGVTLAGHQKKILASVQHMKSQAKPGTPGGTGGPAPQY

KinomeScan kinase panel [5] = target: T5, KinomeScan kinase panel (Homo sapiens, UniProt P09619); details: PDGFRB, 10 µM; read-out: score (%)
T5 construct: purchased DiscoveRx (KinomeScan)
T5 sequence (P09619 33-1106): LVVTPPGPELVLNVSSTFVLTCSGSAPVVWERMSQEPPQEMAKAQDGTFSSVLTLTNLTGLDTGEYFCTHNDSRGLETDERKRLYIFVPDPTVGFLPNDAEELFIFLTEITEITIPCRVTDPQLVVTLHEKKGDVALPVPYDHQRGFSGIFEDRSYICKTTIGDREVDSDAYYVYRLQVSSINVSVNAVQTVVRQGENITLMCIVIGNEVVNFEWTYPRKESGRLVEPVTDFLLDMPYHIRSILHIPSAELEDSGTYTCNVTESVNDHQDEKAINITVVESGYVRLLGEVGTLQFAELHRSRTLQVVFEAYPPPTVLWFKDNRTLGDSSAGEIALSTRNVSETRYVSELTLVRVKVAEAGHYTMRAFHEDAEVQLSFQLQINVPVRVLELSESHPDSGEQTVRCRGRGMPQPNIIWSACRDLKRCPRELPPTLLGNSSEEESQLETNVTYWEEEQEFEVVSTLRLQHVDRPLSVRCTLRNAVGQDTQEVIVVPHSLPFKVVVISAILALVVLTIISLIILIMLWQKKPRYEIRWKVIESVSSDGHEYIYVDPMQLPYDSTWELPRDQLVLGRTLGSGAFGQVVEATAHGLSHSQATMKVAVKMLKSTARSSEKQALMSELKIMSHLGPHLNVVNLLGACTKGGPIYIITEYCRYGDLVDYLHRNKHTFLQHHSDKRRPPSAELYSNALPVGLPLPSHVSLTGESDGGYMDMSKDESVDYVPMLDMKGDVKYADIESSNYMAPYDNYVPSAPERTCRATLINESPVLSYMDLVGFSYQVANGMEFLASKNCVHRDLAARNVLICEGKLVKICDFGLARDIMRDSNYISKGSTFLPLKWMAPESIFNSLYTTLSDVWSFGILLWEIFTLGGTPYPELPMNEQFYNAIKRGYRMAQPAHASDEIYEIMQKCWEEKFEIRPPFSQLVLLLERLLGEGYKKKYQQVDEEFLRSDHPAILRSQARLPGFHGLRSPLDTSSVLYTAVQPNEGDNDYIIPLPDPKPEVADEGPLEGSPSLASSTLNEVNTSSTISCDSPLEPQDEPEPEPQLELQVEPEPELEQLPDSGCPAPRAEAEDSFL

Compound	remaining binding at 10 µM (KinomeScan kinase panel [1]) [%]	remaining binding at 10 µM (KinomeScan kinase panel [2]) [%]	remaining binding at 10 µM (KinomeScan kinase panel [3]) [%]	remaining binding at 10 µM (KinomeScan kinase panel [4]) [%]	remaining binding at 10 µM (KinomeScan kinase panel [5]) [%]
CCN1CCN(Cc2ccc(NC(=O)c3ccc(C)c(NC(=O)c4cncc(-c5cccs5)c4)c3)cc2C(F)(F)F)CC1 [ALW-II-41-27]	> 30	26	31	0.55	0
CCN1CCN(Cc2ccc(NC(=O)c3ccc(C)c(/C=C/c4cnc5[nH]ccc5c4Cl)c3)cc2C(F)(F)F)CC1 [HG-6-63-01, (E)-3-(2-(4-chloro-1H-pyrrolo[2,3-b]pyridin-5-yl)vinyl)-N-(4-((4-ethylpiperazin-1-yl)methyl)-3-(trifluoromethyl)phenyl)-4-methylbenzamide]	> 30	> 30	1.6	5.7	0
CCN1CCN(Cc2ccc(NC(=O)c3ccc(C)c(C#Cc4cccnc4)c3)cc2C(F)(F)F)CC1 [XMD15-44]	16	1.6	> 30	1.6	0
